Legend:
[1] = test system: MDA-MB-231; test: Cell cycle analysis (G2/M arrest, PI staining, flow cytometry), MDA-MB-231; type: cell-based; settings: Homo sapiens; MDA-MB-231; overnight incubation, PI staining, flow cytometry; mean of 3 ± SEM; read-out: EC50 (G2/M arrest)
Method: Fig. 2 Antimitotic activity of WEHI-7326: cancer cell lines and effects on tubulin polymerization. a Dose-dependent antimitotic activity of WEHI-7326, nocodazol and taxol in tumor cell lines SW480 (colorectal) and MDA-MB-231 (breast). Data are presented as percentage of cells in G2/M after overnight incubation with increasing concentrations of inhibitors and PI staining followed by flow cytometry analysis. Mean average of 3 independent experiments ±SEM. b EC50 values (nM) for G2/M arrest on SW480 and MDA-MB-231 cell lines, given as mean average of 3 independent experiments ±SEM. c Western blot analysis of mitotic arrest in SW480 and MDA-MB-231 cells treated with EC50 concentrations of WEHI-7326 or Paclitaxel as marked by expression of phosho-S10 Histone H3 (p-HH3 S10), at different timepoints post treatment. Expression of β-actin provided as loading control. d Cell cycle analysis of LIM1899 cells 72 h post treatment with increasing concentrations of WEHI-7326 as measured by PI staining for DNA content followed by flow cytometry analysis. Sub-G1 represents apoptotic fractions and >4 N cell fractions of mitotic slippage. e Immunofluorescence confocal microscopy of tubulin polymerization in SW480 cells treated by various agents. […] Representative blot of 3 independent experiments. g Tubulin polymerization was assessed in vitro over time using a fluorescence-based tubulin polymerization assay (BK011P). […] Polymerization was measured by excitation at 360 nm and emission at 420 nm. […]
Cells in log growth were supplemented with fresh medium with either vehicle (control) or compound at the stated final concentrations. […] After 1 h incubation at room temperature in the dark, cells were analyzed on a FACScan (Becton and Dickinson) in CellQuest. The percentage of cells in each phase of the cell cycle was determined using ModFit software (Verity, http://www.vsh.com). Early and late apoptotic responses elicited by WEHI-7326 were assessed using Dead Cell Apoptosis Kit (ThermoFisher Scientific) with Annexin V FITC and PI following manufacturer’s instructions. […]

[2] = test system: SW480; test: Cell cycle analysis (G2/M arrest, PI staining, flow cytometry), SW480; type: cell-based, human; settings: SW480; for EC50: Homo sapiens, overnight incubation, PI staining, flow cytometry, mean of 3 ± SEM, read-out: EC50 (G2/M arrest)
Method: Fig. 2 Antimitotic activity of WEHI-7326: cancer cell lines and effects on tubulin polymerization. a Dose-dependent antimitotic activity of WEHI-7326, nocodazol and taxol in tumor cell lines SW480 (colorectal) and MDA-MB-231 (breast). Data are presented as percentage of cells in G2/M after overnight incubation with increasing concentrations of inhibitors and PI staining followed by flow cytometry analysis. Mean average of 3 independent experiments ±SEM. b EC50 values (nM) for G2/M arrest on SW480 and MDA-MB-231 cell lines, given as mean average of 3 independent experiments ±SEM. c Western blot analysis of mitotic arrest in SW480 and MDA-MB-231 cells treated with EC50 concentrations of WEHI-7326 or Paclitaxel as marked by expression of phosho-S10 Histone H3 (p-HH3 S10), at different timepoints post treatment. Expression of β-actin provided as loading control. d Cell cycle analysis of LIM1899 cells 72 h post treatment with increasing concentrations of WEHI-7326 as measured by PI staining for DNA content followed by flow cytometry analysis. Sub-G1 represents apoptotic fractions and >4 N cell fractions of mitotic slippage. e Immunofluorescence confocal microscopy of tubulin polymerization in SW480 cells treated by various agents. Cells were incubated for 24 h with control (0.1% DMSO), nocodazole (1 μM), paclitaxel (1 μM), myoseverin B (1 μM) or WEHI-7326 (1 μM). Cells were fixed and stained with β-tubulin antibody (green) and DAPI (DNA; blue) and phalloidin (actin, red). Shown are single confocal sections and enlarged areas (3x) to highlight changes in microtubule network; scale bar = 20 μm. Representative images from 2 independent experiments. f Cellular tubulin polymerization assay in cells: SW480 cells were incubated overnight with paclitaxel, myoseverin B or WEHI-7326, then processed to detect fractions of polymerized (P) and soluble (S) tubulin by western blot analysis. Representative blot of 3 independent experiments. g Tubulin polymerization was assessed in vitro over time using a fluorescence-based tubulin polymerization assay (BK011P). Tubulin was incubated with control (DMSO), paclitaxel (3 μM), nocodazole (15 μM) and WEHI-7326 at indicated concentrations (in DMSO). Polymerization was measured by excitation at 360 nm and emission at 420 nm. Representative graph of 3 independent experiments performed in duplicates. […]
Cells in log growth were supplemented with fresh medium with either vehicle (control) or compound at the stated final concentrations. […] After 1 h incubation at room temperature in the dark, cells were analyzed on a FACScan (Becton and Dickinson) in CellQuest. The percentage of cells in each phase of the cell cycle was determined using ModFit software (Verity, http://www.vsh.com). Early and late apoptotic responses elicited by WEHI-7326 were assessed using Dead Cell Apoptosis Kit (ThermoFisher Scientific) with Annexin V FITC and PI following manufacturer’s instructions. Cells were incubated 24 h with 6-point, 4-fold titration of WEHI-7326, washed twice with cold 1X PBS, resuspended in 1X Annexin Binding Buffer, incubated with FITC Annexin V and PI for 15 mins at RT in the dark and subsequently analyzed by flow cytometry.

[3] = test system: SW480; test: Cell growth inhibition assay, SW480; type: cell-based, human; settings: SW480 colon cancer cell line in vitro
Method: Cells were plated at a density of between 500 to 5000 cells per well for adherent cell lines depending on doubling time, and 15,000 cells per well for lymphoblastic leukemia cell lines, in a 96-well plate in 200 μl of growth media. Plates were incubated overnight at 37 °C before adding the inhibitors. Inhibitors were serially diluted from the stock solutions in complete medium and added to the cells. Incubation in the presence of inhibitors was continued for […]. Cell viability was assessed by the AlamarBlue (Invitrogen) or CellTiterBlue/Glo (Promega) method according to manufacturer’s instructions. The curve fits and IC50 values were generated in PRISM (GraphPad, San Diego, CA).
a Chemical structures of the triazine-based anti-mitotics used in this study. b Dose-dependent antiproliferative activity of key derivatives and comparison with commonly used anti-mitotics in SW480 cell line: Data shown is cell viability (as measured by CellTiterGlo) after 72 h relative to untreated control cells. Shown is mean of 3 independent experiments performed in duplicate +/- SEM. c Dose-dependent cell cycle analysis of key derivatives of WEHI-7326 development in SW480 cell line. Data are presented as percentage of cells in G2/M or subG0 after 24 h incubation with titration of inhibitors as assessed by PI staining and flow cytometry. Mean average of 3 experiments +/- SEM. d Comparison of IC50 and EC50 values of triazine compounds and anti-mitotic drugs in SW480 cell line: inhibition of cellular proliferation and cell cycle arrest in G2/M. IC50 and EC50 values are the mean of 3 independent experiments run in duplicates +/- SEM (n.d. = not determined). e HepG2 cytotoxic assay: cell viability assay after 48 h, normalised to 0.4% DMSO (100% viability) and 2 μM bortezomib (0% viability). The data is the mean average of 2 experiments +/- SD.

[4] = test system: MH792 LUSC PDX; test: LUSC PDX model MH792; type: in vivo, NOD-SCID-IL2Rγc–/– mice; settings: MH792 PDX; WEHI-7326 20 mg/kg i.v. biweekly; docetaxel 10 mg/kg i.p. once
Method: (§1) LUSC PDXs were generated as described in[25]. PDXs at passage 4 were defrosted and washed with PBS before counting. 200,000 to 500,000 cells were then injected in a 50:50 PBS:Matrigel mix into the flanks of NOD-SCID-IL2Rγc–/– male mice. Tumors were measured twice weekly with calipers and treatment started when tumors were between 70–120 mm^3. Mice were assigned to treatment groups based on average tumor volume per group. Mice were culled when tumors reached a volume of 600 mm^3.

[5] = test system: 24 T TNBC PDX; test: TNBC PDX model 24T; type: in vivo, NOD-SCID-IL2Rγc–/– mice; settings: 24 T PDX; docetaxel 10 mg/kg i.p. once; WEHI-7326 20 mg/kg i.v. biweekly
Method: (§2) Cohorts of about 30 female mice were seeded with thawed single cell suspensions of early passage human breast tumors (passage 2 or 3). Briefly, 150,000–250,000 cells were resuspended in 10 µl of transplantation buffer (50% fetal calf serum, 10% of a 0.04% trypan blue solution and 40% PBS) and growth-factor-reduced Matrigel [BD] at a ratio of 3:1, and injected into the cleared mammary fat pads of 3- or 4-week-old NOD-SCID-IL2Rγc–/– female mice. Mice were monitored for tumor development three times weekly and tumor size measured using digital Vernier calipers. Tumor volume was estimated by measuring the minimum and maximum tumor diameters using the formula: (minimum diameter)^2 x (maximum diameter)/2. Once tumors arose, mice were randomized into treatment arms. Treatment was initiated when the tumor volume reached 80–120 mm^3. Randomization and tumor measurements were managed using the Study Director software (v 3.0, studylog). Mice were sacrificed at the first measurement where tumor volume exceeded 600 mm^3, or if their health deteriorated for reasons other than disease progression or drug toxicity (censored event).
(§3) Mice were treated with either docetaxel (10 mg/kg; i.p.; once), cisplatin (4 mg/kg; i.p.; once) or WEHI-7326 (20 mg/kg; twice a week (Monday and Thursday); i.v.). Vehicle treated mice were administered with the vehicle for WEHI-7326. Docetaxel was resuspended at 2 mg/ml in PBS:Tween-80:ethanol = 90:5:5 (v/v/v). WEHI-7326 was resuspended at 2 mg/ml in saline.

[6] = test system: MDA-MB-231 LNA DRE (docetaxel resistant breast cancer) xenograft; test: Orthotopic MDA-MB-231 LNA-DRE xenograft; type: in vivo, Balb/c nude mice; settings: docetaxel 10 mg/kg weekly i.v., WEHI-7326 30 mg/kg biweekly i.v.
Method: LoVo (4 × 10^6), PC3 (3 × 10^6) or MDA-MB-231 LNA DRE (10^6) cells were collected by trypsination and injected with 50 μl 1:1 PBS:Matrigel (v/v) subcutaneously on the right flank of 18 female (LoVo), 40 male (PC3) or into 4th mammary fat pad of 40 female (MDA231) Balb/c nude mice. Tumor growth was monitored and average tumor size at commencement of dosing was 100 mm^3. Mice were randomized into 3 arms of each 5 (LoVo), 10 (PC3) or 12 (MDA23) mice respectively and treatment with vehicle (saline), WEHI-7326 (biweekly) or docetaxel (weekly) was administered via tail vein injection. Tumor volumes were measured at least twice weekly with calipers and the experiments were terminated when tumors in the control group started exceeding 1500 mm^3. For LoVo, both vehicle and 25 mg/kg WEHI-7326 groups were harvested 24 h, but 20 mg/kg WEHI-7326 group harvested 1 h post final dose. For PC3, docetaxel group was not harvested in an attempt to grow out resistant tumors.

[7] = test system: AH406 LUSC PDX; test: LUSC PDX model AH406; type: in vivo, NOD-SCID-IL2Rγc–/– mice; settings: WEHI-7326 20 mg/kg i.v. biweekly, docetaxel 10 mg/kg i.p. once
Method: as §1

[8] = test system: 322 T TNBC PDX; test: TNBC PDX model 322T; type: in vivo, NOD-SCID-IL2Rγc–/– mice; settings: 322 T PDX; docetaxel 10 mg/kg i.p. once; WEHI-7326 20 mg/kg i.v. biweekly
Method: as §2, §3

Compound `COC(=O)Nc1nc2ccc(C(=O)c3cccs3)cc2[nH]1` [Nocodazol, nocodazole, reference compound] has an EC50 [1] of 37.2 ± 7.2 nM and an EC50 [2] of 57.4 ± 5.9 nM.

Compound `CC(=O)O[C@H]1C(=O)[C@@]2(C)[C@H]([C@H](OC(=O)c3ccccc3)[C@]3(O)C[C@H](OC(=O)[C@H](O)[C@@H](NC(=O)c4ccccc4)c4ccccc4)C(C)=C1C3(C)C)[C@]1(OC(C)=O)CO[C@@H]1C[C@@H]2O` [Paclitaxel, paclitaxel, reference compound] has an EC50 [1] of 5.6 ± 3.1 nM and an EC50 [2] of 39.3 ± 4.1 nM.

`COc1ccc(CNc2nc(NCc3ccc(OC)cc3)nc(NN3CC(=O)NC3=O)n2)cc1` [compound 6] was tested, and the Concentration inhibiting proliferation [3] was “at or below micromolar concentration” and the “G2/M cell cycle arrest” value [2] was “strong G2/M cell cycle arrest”.

For `CC(=O)O[C@@]12CO[C@@H]1C[C@H](O)[C@@]1(C)C(=O)[C@H](O)C3=C(C)[C@@H](OC(=O)[C@H](O)[C@@H](NC(=O)OC(C)(C)C)c4ccccc4)C[C@@](O)([C@@H](OC(=O)c4ccccc4)[C@H]21)C3(C)C` [docetaxel, reference compound], the Median survival [4] was 22 days, the Survival time [5] was 11 days and the “Tumor growth inhibition (TGI)” value [6] was 70%. It also gave a Median survival [7] of 24 days and a Survival time [8] of 7 days.
